Measured values taken from patent US20050075398A1, “Neuroprotectin D1 protects against cellular apoptosis, stroke damage, alzheimer's disease and retinal diseases” (priority 2003, published 2005).

Experiments:
Format in all cases: cell-based, human
[1] = test system: Bfl-1(A1) protein; assay: Western analysis of Bfl-1(A1) in HN cells; conditions: 50 nM, p<0.05
Procedure: (§1) Western Analysis. Total protein was extracted, and 25 μg of protein was analyzed by Western blots using human Bcl-2, Bfl-1 (A1) and actin antibodies. […] Human specific anti-Bfl-1(A1)[Cat. No. sc-8351] was obtained from Santa Cruz Biotechnology (Santa Cruz, Calif.). For Western analysis, signal-intensity data were gathered by phosphorimaging onto molecular imaging screens (FUJIFILM) for 3-36 h using a Typhoon Molecular Imager system (Amersham Biosciences) as described in Bazan and Lukiw, 2002.
(§2) To confirm the above changes in Bcl-2 and Bfl-1(A1), Western analysis was performed using anti-Bcl-2, anti-Bfl-1(A1), and anti-actin primary antibodies (B3170 Sigma Life Science, sc-8351 Santa Cruz, and A2103 Sigma, respectively). The results of the Western analysis confirm up-regulation of Bcl-2 and Bfl-1(A1) anti-apoptotic proteins over actin controls in DHA- and NPD1-treated cells.

[2] = test system: COX-2 gene expression; assay: HGU133 GeneChip DNA array in HN cells: COX-2; conditions: Aβ42 25 μM, DHA 50 nM or NPD1 50 nM, 18 h, nsc = no significant change
[3] = test system: Bcl-2 protein; assay: Western analysis of Bcl-2 in HN cells; conditions: 50 nM, p<0.05
Procedure: as §1, §2

## CC/C=C\C[C@H](O)\C=C/C=C/C=C/[C@H](O)C/C=C\C/C=C\CCC(=O)O [NPD1, 10,17S-docosatriene]
[1]
  Bfl-1(A1) protein increase over controls, normalized with actin: 5.4 fold
[2]
  COX-2 gene expression, fold change over untreated controls: nsc
[3]
  Bcl-2 protein increase over controls, normalized with actin: 2.3 fold
